# Reference: ChEMBL document CHEMBL6127051, “Hydrazinecarboxamides: Comprehensive review of their anticancer, anticonvulsive, anti-inflammatory, enzyme inhibition, antioxidant and other activities” (Eur J Med Chem, 2024)
# Columns and labels:
# PC-3 = assay: Antiproliferative activity against human PC-3 cells assessed as inhibition of cell growth at 10 uM relative to control; type: functional; parameters: scale not given: the % may be the effect or the level left; details: pooled result: one value given for 4 cell lines, strains, targets or settings
# UO-31 = assay: Antiproliferative activity against human UO-31 cells assessed as inhibition of cell growth at 10 uM relative to control; type: functional; parameters: scale not given: the % may be the effect or the level left
# Mus musculus [1] = assay: Anticonvulsant activity in ip dosed MES induced mouse model measured after 2 hrs; type: functional
# MCF7 [2] = assay: Antiproliferative activity against human MCF7 cells assessed as reduction in cell viability measured after 48 hrs by MTT assay; type: functional, cell-based; details: MCF7, 48 h
# Mus musculus [3] = assay: Anticonvulsant activity in ip dosed MES induced mouse model measured after 4 hrs; type: functional
# Alpha glucosidase = Alpha glucosidase (Homo sapiens, UniProt O43451+P10253+P14410+Q2M2H8); assay: Inhibition of Alpha glucosidase (unknown origin); type: protein assay
# [4] = Inhibition of alpha amylase (unknown origin); parameters: species or system Homo sapiens
# Mus musculus [5] = assay: Anticonvulsant activity in po dosed scPTZ induced Albino mouse seizure model measured after 4 hrs; type: functional
# [6] = Inhibition of Lipoxygenase (unknown origin); parameters: species or system Homo sapiens
# Cholinesterase = Cholinesterase (Equus caballus, UniProt P81908); assay: Inhibition of equine serum BChE using butyrylthiocholine iodide as substrate measured after 15 mins by Ellman's method
# Acetylcholinesterase = Acetylcholinesterase (Electrophorus electricus, UniProt O42275); assay: Inhibition of electric eel AChE using acetylthiocholine iodide as substrate incubated for 15 mins by Ellman's method
# HepG2 [7] = assay: Antiproliferative activity against human HepG2 cells assessed as inhibition of cell growth incubated for 48 hrs by MTT assay; type: functional, cell-based; details: HepG2, 48 h
# MCF7 [8] = assay: Antiproliferative activity against human MCF7 cells assessed as reduction in cell growth incubated for 48 hrs by MTT assay; type: functional, cell-based; details: MCF7, 48 h
# 769-P = assay: Antiproliferative activity against human 769-P cells assessed as reduction in cell growth incubated for 48 hrs by MTT assay; type: functional, cell-based
# HepG2 [9] = assay: Antiproliferative activity against human HepG2 cells assessed as reduction in cell growth incubated for 48 hrs by MTT assay; type: functional, cell-based; details: HepG2, 48 h
# HEK293 = assay: Antiproliferative activity against HEK293 cells assessed as inhibition of cell growth incubated for 48 hrs by CCK8 assay; type: functional, cell-based; details: Homo sapiens, HEK293, 48 h
# NCI-H1563 = assay: Antiproliferative activity against human NCI-H1563 cells assessed as reduction in cell growth incubated for 24 hrs by MTT assay; type: functional, cell-based; details: NCI-H1563, 24 h
# HepG2 [10] = assay: Antiproliferative activity against human HepG2 cells assessed as reduction in cell growth incubated for 24 hrs by MTT assay; type: functional, cell-based; details: HepG2, 24 h
# [11] = Antiplatelet activity in human platelets assessed as inhibition of collagen-induced platelet aggregation at 10 uM relative to control; type: functional; parameters: scale not given: the % may be the effect or the level left
# [12] = Antiplatelet activity in human platelets assessed as inhibition of collagen-induced platelet aggregation at 20 uM relative to control; type: functional; parameters: scale not given: the % may be the effect or the level left
# MKN-45 = assay: Antiproliferative activity against human MKN-45 cells assessed as inhibition of cell growth by MTT assay; type: functional, cell-based
# P388 = assay: Cytotoxicity against mouse P388 cells assessed as reduction in cell viability; type: functional, cell-based
# DNA topoisomerase 1 = DNA topoisomerase 1 (Homo sapiens, UniProt P11387); assay: Inhibition of DNA topoisomerase I (unknown origin)
# AR-42J cell line = assay: Antiproliferative activity against AR42J cells assessed as reduction in cell viability incubated for 24 hrs by MTT colorimetric assay; type: functional, cell-based; details: Rattus norvegicus
# [13] = Tmax in rat at 2 mg/kg, po by LC-MS/MS analysis; type: ADME, organism-based; details: in vivo
# [14] = molecular target: Polyunsaturated fatty acid 5-lipoxygenase (Homo sapiens, UniProt P09917); assay: Inhibition of 5-LOX (unknown origin)
# [15] = Half life in rat at 2 mg/kg, po by LC-MS/MS analysis; type: ADME, organism-based; details: in vivo
# Chain of DNA topoisomerase 1 (P11387 whole entry): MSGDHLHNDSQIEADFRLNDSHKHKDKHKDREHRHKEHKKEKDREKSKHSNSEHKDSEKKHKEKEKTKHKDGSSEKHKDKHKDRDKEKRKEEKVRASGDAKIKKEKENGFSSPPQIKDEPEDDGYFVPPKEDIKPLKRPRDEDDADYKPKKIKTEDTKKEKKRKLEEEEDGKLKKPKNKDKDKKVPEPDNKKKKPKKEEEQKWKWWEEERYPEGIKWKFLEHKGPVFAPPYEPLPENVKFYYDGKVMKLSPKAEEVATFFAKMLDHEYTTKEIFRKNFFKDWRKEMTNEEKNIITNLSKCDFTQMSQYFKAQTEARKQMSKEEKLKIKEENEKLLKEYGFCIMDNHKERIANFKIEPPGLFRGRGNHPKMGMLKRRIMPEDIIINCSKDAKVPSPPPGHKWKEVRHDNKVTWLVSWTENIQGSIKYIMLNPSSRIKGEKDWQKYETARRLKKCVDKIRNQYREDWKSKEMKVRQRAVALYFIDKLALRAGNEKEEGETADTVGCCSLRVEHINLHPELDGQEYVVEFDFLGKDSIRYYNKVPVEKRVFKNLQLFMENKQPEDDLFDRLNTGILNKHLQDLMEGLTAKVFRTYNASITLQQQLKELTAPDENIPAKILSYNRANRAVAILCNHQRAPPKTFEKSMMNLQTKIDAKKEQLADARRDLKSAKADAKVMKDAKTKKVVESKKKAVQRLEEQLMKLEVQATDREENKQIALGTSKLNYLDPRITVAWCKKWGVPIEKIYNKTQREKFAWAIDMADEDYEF
# Chain of Cholinesterase (P81908 whole entry): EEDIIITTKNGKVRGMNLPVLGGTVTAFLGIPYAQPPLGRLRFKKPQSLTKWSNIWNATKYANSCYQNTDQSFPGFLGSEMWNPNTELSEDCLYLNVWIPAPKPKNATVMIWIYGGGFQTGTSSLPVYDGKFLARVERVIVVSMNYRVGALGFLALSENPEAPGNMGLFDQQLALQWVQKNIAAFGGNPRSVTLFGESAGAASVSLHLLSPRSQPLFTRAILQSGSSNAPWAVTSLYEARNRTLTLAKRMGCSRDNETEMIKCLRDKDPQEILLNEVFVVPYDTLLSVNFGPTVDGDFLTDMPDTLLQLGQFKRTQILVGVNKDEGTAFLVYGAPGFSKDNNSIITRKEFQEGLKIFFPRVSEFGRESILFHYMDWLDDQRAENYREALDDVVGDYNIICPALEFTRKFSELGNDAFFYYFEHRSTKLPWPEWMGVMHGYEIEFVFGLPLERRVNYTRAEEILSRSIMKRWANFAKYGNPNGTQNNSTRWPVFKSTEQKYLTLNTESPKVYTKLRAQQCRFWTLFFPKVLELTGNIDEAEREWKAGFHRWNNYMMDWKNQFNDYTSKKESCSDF
# Chain of Acetylcholinesterase (O42275 whole entry): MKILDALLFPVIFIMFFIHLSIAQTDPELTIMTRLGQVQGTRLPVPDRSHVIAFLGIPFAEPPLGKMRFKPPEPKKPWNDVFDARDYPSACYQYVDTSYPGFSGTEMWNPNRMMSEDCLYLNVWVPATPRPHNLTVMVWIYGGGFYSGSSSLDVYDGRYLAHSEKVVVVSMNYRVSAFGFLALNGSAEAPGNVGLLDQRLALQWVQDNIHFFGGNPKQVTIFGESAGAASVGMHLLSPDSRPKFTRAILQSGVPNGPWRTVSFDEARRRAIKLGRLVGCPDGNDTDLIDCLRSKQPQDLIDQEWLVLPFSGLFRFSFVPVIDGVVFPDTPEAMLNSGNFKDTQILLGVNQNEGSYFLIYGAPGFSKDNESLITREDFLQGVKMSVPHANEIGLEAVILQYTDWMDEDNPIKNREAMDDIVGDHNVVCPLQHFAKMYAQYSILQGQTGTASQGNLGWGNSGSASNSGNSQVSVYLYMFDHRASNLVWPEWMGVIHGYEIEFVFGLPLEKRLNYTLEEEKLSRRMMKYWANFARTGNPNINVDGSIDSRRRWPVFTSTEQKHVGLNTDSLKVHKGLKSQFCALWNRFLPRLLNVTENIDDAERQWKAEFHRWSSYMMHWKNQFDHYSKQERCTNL
# Chain of Polyunsaturated fatty acid 5-lipoxygenase (P09917 whole entry): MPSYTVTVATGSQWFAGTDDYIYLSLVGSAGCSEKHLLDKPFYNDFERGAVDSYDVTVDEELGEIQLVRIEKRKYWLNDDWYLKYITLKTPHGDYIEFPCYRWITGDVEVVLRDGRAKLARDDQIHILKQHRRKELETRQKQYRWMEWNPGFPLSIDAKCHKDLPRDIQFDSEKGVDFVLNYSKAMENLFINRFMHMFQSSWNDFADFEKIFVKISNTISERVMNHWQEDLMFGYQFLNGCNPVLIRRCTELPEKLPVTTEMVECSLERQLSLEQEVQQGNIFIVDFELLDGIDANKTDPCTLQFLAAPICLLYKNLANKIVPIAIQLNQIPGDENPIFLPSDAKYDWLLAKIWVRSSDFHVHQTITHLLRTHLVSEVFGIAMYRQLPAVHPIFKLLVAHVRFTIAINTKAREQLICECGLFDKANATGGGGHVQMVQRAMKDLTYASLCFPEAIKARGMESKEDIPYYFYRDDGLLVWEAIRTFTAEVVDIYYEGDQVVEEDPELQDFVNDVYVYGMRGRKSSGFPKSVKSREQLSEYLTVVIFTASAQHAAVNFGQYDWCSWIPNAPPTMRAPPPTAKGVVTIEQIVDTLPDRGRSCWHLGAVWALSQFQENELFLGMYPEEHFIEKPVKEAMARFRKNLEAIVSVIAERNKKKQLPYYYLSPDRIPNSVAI
smiles,measurement,setting,value
CC(=O)Nc1nc(C)c(C(=O)NNC(=O)Nc2ccccc2)s1,Activity,PC-3,14.8%
same,Activity,UO-31,14.8%
Cc1ccc(NC(=O)NN)cc1,Activity,Mus musculus [1],100%
COc1cc(/C=C2\SC(=S)N(n3c(=O)[nH]c4ccccc4c3=O)C2=O)ccc1OC(=O)c1ccccc1,IC50,MCF7 [2],0.012 µM
NNC(=O)Nc1ccccc1Cl,Activity,Mus musculus [3],66.6%
Cc1ccc(C[C@@H]2C[C@H]3C(=O)N(C)C4(C[C@H](C)CC[C@H]4C(C)C)N3O2)c(OCC(=O)NNC(=O)Nc2cccc3ccccc23)c1 (stereo partly drawn),IC50,Alpha glucosidase,94.33 µM
same,IC50,[4],53 µM
O=C(CSc1nc2ccccc2n2cnnc12)NNC(=O)NC1CCCCC1,ED50,Mus musculus [5],30 mg/kg
CC(C(=O)O)c1cccc(Oc2ccccc2)c1 (stereo not drawn) [FENOPROFEN],IC50,[6],60 µM
CCCCCCCCCCCCCNC(=O)NNC(=O)c1ccc(C(F)(F)F)cc1,IC50,Cholinesterase,58 µM
same,IC50,Acetylcholinesterase,27 µM
O=C(NNC(=O)C(=O)Nc1ccccc1)Nc1ccccc1,IC50,HepG2 [7],7.73 µM
same,IC50,MCF7 [8],10.3 µM
CCNC(=O)NNC(=O)c1ccc([N+](=O)[O-])cc1,IC50,769-P,4780 µM
same,IC50,HepG2 [9],1930 µM
same,IC50,HEK293,1500 µM
same,IC50,NCI-H1563,336 µM
same,IC50,HepG2 [10],7.06 µM
O=C(NNc1ccnc2ccccc12)Nc1ccccc1,Activity,[11],11.7%
same,Activity,[12],10.6%
O=C(Nc1ccccc1)NN1C(=O)c2c(c3c4cccc(O)c4n([C@H]4O[C@H](CO)[C@@H](O)[C@H](O)[C@H]4O)c3c3[nH]c4c(O)cccc4c23)C1=O,IC50,MKN-45,0.035 µM
same,IC50,P388,0.035 µM
same,IC50,DNA topoisomerase 1,0.25 µM
O=C(CNc1nc2ccccc2n1C(=O)Nc1ccccc1)NNC(=O)Nc1ccccc1,IC50,AR-42J cell line,304 µM
same,IC50,[4],64.8 µM
O=C1NCCN(c2ccccc2)N1,Tmax,[13],1 h
same,IC50,[14],5 µM
same,half-life,[15],3.3 h
